Test results from ChEMBL document CHEMBL3733935, “Pyrazolylbenzothiazole derivatives and their use as therapeutic agents” (2013).
Activity calls are given as the source filed them.

Key:
Assay type in all cases: functional, cell-based
[1] = organism: Mus musculus; experiment: Cytoprotective activity against PAN-induced toxicity in mouse K5P5 cells assessed as increase in cell size at 2.5 to 25 uM after 48 to 72 hrs by crystal violet staining assay
[2] = organism: Mus musculus; experiment: Cytoprotective activity against PAN-induced toxicity in mouse K5P5 cells assessed as increase in cell spreading at 2.5 to 25 uM after 48 to 72 hrs by crystal violet staining assay
[3] = organism: Mus musculus; experiment: Cytoprotective activity against PAN-induced toxicity in mouse K5P5 cells assessed as increase in overall cell number at 2.5 to 25 uM after 48 to 72 hrs by crystal violet staining assay

Measured: Activity

Cc1[nH]nc(N)c1-c1nc2cc(F)c(S(=O)(=O)NCCO)cc2s1
active: [1] | [2] | [3]

CNS(=O)(=O)c1ccc2nc(-c3c(N)n[nH]c3C)sc2c1
active: [1] | [2] | [3]

Cc1[nH]nc(N)c1-c1nc2ccc(CN(C)C)cc2s1
active: [1] | [2] | [3]

COc1cc2sc(-c3c(-c4ccco4)n[nH]c3N)nc2cc1F
active: [1] | [2] | [3]

Cc1[nH]nc(N)c1-c1nc2cc(F)c(S(N)(=O)=O)cc2s1
active: [1] | [2] | [3]
